The subject of data set [1] is GM-CSF production by KM-102 cells. Briefly: Stimulation of GM-CSF production (KM-102 cells; GM-CSF assayed by growth of TF-1 cells). The conditions noted are these: for EC50: Homo sapiens, 24 hours, TF-1 cell growth, read-out: ED50 for stimulation of GM-CSF production; for EC50 / induction of GM-CSF production (in words): KM-102 cells. The class given is cell-based, human. The source says:
(§1) The ability of the leustroducsins to stimulate the production of hematopoietic factors in accordance with the present invention can, in principle, be assayed by the method by Kohama et al. [Experimental Hematology 16, 603-608 (1988)]. In this method, a production system for various hematopoietic factors and an assay system for various hematopoietic factors are combined. KM-102 cells, for example, which originated from human bone marrow stromal cells, my be employed to produce various hematopoietic factors. However, any cells capable of the production of various hematopoietic factors may be used instead, for example primary cultured bone marrow stromal cells, vascular endothelial cells, lymphocytes, or macrophages which exist in the bone marrow. A test sample of the compound whose activity is to be assessed is diluted to a suitable concentration and added the culture system containing the cells which produce various hematopoietic factors ("HF-producing cells"). After a suitable period, usually 24 hours, a part of the supernatant of the culture medium is taken, and added to a culture system of cells which are dependent on various hematopoietic factors, for example, TF-1 cells and NFS-60 cells, ("HF-dependent cells") at a suitable concentration. After a certain time, the amount of hematopoietic factors can be measured by measuring the growth of the HF-dependent cells, and thus the ability of the compound to stimulate the production of various hematopoietic factors can be assayed. The growth of the HF-dependent cells may be determined by any conventional method, such as the incorporation of tritium-thymidine by the cells or using an MTT [3-(4,5-dimethylthiazol-2-yl)-2,5-diphenyltetrazolium bromide] assay method (Chemicon International Inc., USA). The assay of various hematopoietic factors may be carried out by any conventional method, such as the colony-forming method or the ELISA method.
Determination of the stimulation of GM-CSF production by the compounds of the present invention was carried out, in principle, using a combination of the method of Kohama et al. [Experimental Hematology 16, 603-608 (1988)] and that of Kitamura et al. [Journal of Cellular Physiology 140, 323-334 (1989)]. In more detail, KM-102 cells originating from human bone marrow stromal cells, which served as to produce GM-CSF, were mixed with a test sample solution diluted to a suitable concentration (the "GM-CSF producing system"). After incubation for 24 hours, a part of the culture supernatant was taken and was added to a culture system of GM-CSF-dependent human TF-1 cells. After between 48 and 72 hours, the amount of GM-CSF was measured by the growth of TF-1 cells (the "GM-CSF assay system") to obtain a measure of the stimulation of GM-CSF production. The growth of TF-1 cells was determined by tritium thymidine pulse-labelling for 4 hours. Similar results were obtained also by means of an MTT kit (Chemicon International Inc. USA) to assay the growth of TF-1 cells and by means of an ELISA kit (Genzyme Inc. USA) to assay the GM-CSF. Whether the GM-CSF production inducing system functioned normally or not was assayed by means of recombinant interleukin 1β (IL-1β: Genzyme Inc. USA).

The subject of data set [2] is G-CSF production by KM-102 cells. Briefly: Stimulation of G-CSF production (KM-102 cells; G-CSF assayed by growth of NFS-60 cells). The class given is cell-based, human. The conditions noted are these: for EC50: Homo sapiens, 24 hours, NFS-60 cell growth, read-out: ED50 for stimulation of G-CSF production; for EC50 / induction of G-CSF production (in words): KM-102 cells.
Text: as §1
Stimulation of G-CSF production was assayed by a system in which the GM-CSF assay system employed inTest Example 1 was replaced by a G-CSF assay system [as described by Shirafuji et al.: Experimental Hematology 17, 116-119 (1989)]. In more detail, KM-102 cells originating from human bone marrow stromal cells, which served to produce G-CSF, were added to a leustroducsin solution diluted to a suitable concentration (the "G-CSF producing system"). After incubation for 24 hours, a part of the culture supernatant was taken, and added to a culture system of G-CSF-dependent NFS-60 cells. After between 24 and 48 hours, the amount of G-CSF was assayed from the growth of NFS-60 cells (the "G-CSF assay system") to obtain a measure of the stimulation of G-CSF production. The growth of NFS-60 cells was determined by tritium-thymidine pulse-labelling for 4 hours. Similar results were also obtained by means of an MTT kit to assay the growth of NFS-60 cells and by means of an ELISA kit to assay the G-CSF [Motojima et al.: Journal of Immunological Methods 118, 187-192 (1989)]. Whether the G-CSF production inducing system functioned normally or not was assayed by means of recombinant interleukin 1 β (IL-1β: Genzyme Inc. USA).

Another data set can be described thus: Acute toxicity. Format: in vivo, ddY mice (male). The procedure:
According to the conventional procedure, the acute toxicity was tested in five ddY mice (male).

The nature of another data set: Solubility / nature. Format: physicochemical.
Setting [3] is: similarly tested, dose not separately printed.

This is an account of results in patent US5334587A, “Compounds, named the "Leustroducsins", their preparation and their therapeutic uses” (Sankyo Company, Limited, priority 1991, dated 1994).

In brackets after ≈: the same amount, converted by molar mass.

Regarding `CCC(C)CCCCC(=O)OC1CCCC(/C=C\C=C/C(O)CC(OP(=O)(O)O)C(O)(/C=C/C2OC(=O)C=CC2CC)CCN)C1` (centres unmarked) [Leustroducsin B], in data set [1], the EC50 was 0.05 µg/mL and the “induction of GM-CSF production (in words)” value is reported as “induced in a dose-dependent manner”. In data set [2], the EC50 worked out at 0.05 µg/mL (≈ 0.0746 µM) and the “induction of G-CSF production (in words)” value is reported as “induced in a dose-dependent fashion”. Moreover, the acute toxicity result in “Acute toxicity” (setting [3]) was “no toxicity was observed”. In the data set “Solubility / nature”, the Nature result is “Acidic and fat soluble”; the Solubility in hexane entry is on record as “insoluble in hexane”; the “Solubility in organic solvents” value is “Soluble in alcohols, such as methanol, ethanol or butanol; and soluble in acetone, chloroform, ethyl acetate and dimethyl sulfoxide”; the Solubility in water result was “limited solubility in water”.
In the case of `CCC1C=CC(=O)OC1/C=C/C(O)(CCN)C(CC(O)/C=C\C=C/C1CCCC(OC(=O)CCCC(C)C)C1)OP(=O)(O)O` (centres unmarked) [Leustroducsin A], in data set [1], the EC50 was found to be 0.18 µg/mL and the “induction of GM-CSF production (in words)” value was “induced in a dose-dependent manner”. In addition, in data set [2], the EC50 worked out at 0.2 µg/mL (≈ 0.312 µM) and the “induction of G-CSF production (in words)” value was “induced in a dose-dependent fashion”. In the data set “Acute toxicity” (intraperitoneal, 0.2 mg/kg, 5 days, five mice), the acute toxicity entry is “no toxicity was observed”. In the data set “Solubility / nature”, the Nature result is “Acidic and fat soluble”; the Solubility in hexane entry is “insoluble in hexane”; the “Solubility in organic solvents” value is “Soluble in alcohols, such as methanol, ethanol or butanol; and soluble in acetone, chloroform, ethyl acetate and dimethyl sulfoxide”; the Solubility in water entry is on record as “limited solubility in water”.
On to “IL-1β: recombinant interleukin 1β (IL-1β: Genzyme Inc. USA)”, for which the “induction of GM-CSF production by IL-1β (in words)” value in data set [1] (1 to 100 units/ml) is on record as “induced GM-CSF production in a dose-dependent manner”. In addition, the “induction by IL-1β, printed as GM-CSF production in the G-CSF test (in words)” value in data set [2] (1 to 100 units/ml) is listed as “induced GM-CSF production in a dose-dependent fashion”.
With `CCC1C=CC(=O)OC1/C=C/C(O)(CCN)C(CC(O)/C=C\C=C/C1CCCC(OC(=O)CCCCCC(C)C)C1)OP(=O)(O)O` (centres unmarked) [Leustroducsin C], in data set [1], the EC50 worked out at 0.05 µg/mL and the “induction of GM-CSF production (in words)” value was “induced in a dose-dependent manner”. Also, in data set [2], the EC50 stood at 0.05 µg/mL (≈ 0.0746 µM) and the “induction of G-CSF production (in words)” value was “induced in a dose-dependent fashion”. Moreover, the acute toxicity result in the data set “Acute toxicity” (setting [3]) is listed as “no toxicity was observed”. Further, in “Solubility / nature”, the Nature entry is “Acidic and fat soluble”; the Solubility in hexane entry is “insoluble in hexane”; the “Solubility in organic solvents” value is “Soluble in alcohols, such as methanol, ethanol or butanol; and soluble in acetone, chloroform, ethyl acetate and dimethyl sulfoxide”; the Solubility in water result was “limited solubility in water”.
